For 32 molecules, Hepatotoxicity results are on record in ChEMBL document CHEMBL1697731, “Cheminformatics analysis of assertions mined from literature that describe drug-induced liver injury in different species” (Chem Res Toxicol, 2010).

The subject of data set [1] is Hepatotoxicity. Briefly: Literature-mined compound from Fourches et al multi-species drug-induced liver injury (DILI) dataset, effect in non-rodents.
Data set [2] deals with Hepatotoxicity. As to the kind of experiment: Literature-mined compound from Fourches et al multi-species drug-induced liver injury (DILI) dataset, effect in rodents. To be noted: rodentia.
Data set [3] concerns Hepatotoxicity. As to the kind of experiment: Literature-mined compound from Fourches et al multi-species drug-induced liver injury (DILI) dataset, effect in humans. To be noted: human.

As to `Clc1ccccc1CN1CCc2sccc2C1` [TICLOPIDINE], the Hepatotoxicity result with Hepatotoxicity [1] (Liver) was “no drug-induced liver injury reported”; with Hepatotoxicity [2] (Liver) it was “drug-induced liver injury reported”; with Hepatotoxicity [3] (Liver), “drug-induced liver injury reported”.
For the molecule `CCN1CCN(C(=O)N[C@@H](C(=O)N[C@@H]2C(=O)N3[C@@H]2SC(C)(C)[C@@H]3C(=O)O)c2ccccc2)C(=O)C1=O` [PIPERACILLIN], the Hepatotoxicity entry with Hepatotoxicity [1] is given as “drug-induced liver injury reported”; with Hepatotoxicity [2], “drug-induced liver injury reported”; in the data set on Hepatotoxicity [3] it was “no drug-induced liver injury reported”.
Regarding `Cl.Cl.NCCc1c[nH]cn1` [HISTAMINE DIHYDROCHLORIDE], the Hepatotoxicity result in the data set on Hepatotoxicity [1] (Liver) is recorded as “no drug-induced liver injury reported”; with Hepatotoxicity [2] (Liver), “drug-induced liver injury reported”; in the data set with Hepatotoxicity [3] (Liver), “no drug-induced liver injury reported”.
Take `Cc1cc(-c2ccc(/N=N/c3ccc4c(S(=O)(=O)[O-])cc(S(=O)(=O)[O-])c(N)c4c3O)c(C)c2)ccc1/N=N/c1ccc2c(S(=O)(=O)[O-])cc(S(=O)(=O)[O-])c(N)c2c1O.[Na+].[Na+].[Na+].[Na+]` [EVANS BLUE]: the Hepatotoxicity entry in the data set on Hepatotoxicity [1] is “no drug-induced liver injury reported”; with Hepatotoxicity [2] it was “drug-induced liver injury reported”; in the data set with Hepatotoxicity [3] it was “no drug-induced liver injury reported”.
As for `CCC(C(=O)O)C1(O)CCCCC1` (stereo unspecified) [CYCLOBUTYROL], the Hepatotoxicity result in the data set on Hepatotoxicity [1] is “no drug-induced liver injury reported”; with Hepatotoxicity [2], “drug-induced liver injury reported”; in the data set with Hepatotoxicity [3], “no drug-induced liver injury reported”.
As to `CC/C=C\C/C=C\C/C=C\C/C=C\C/C=C\C/C=C\CCC(=O)O` [DOCONEXENT], the Hepatotoxicity result with Hepatotoxicity [1] was “no drug-induced liver injury reported”; in the data set with Hepatotoxicity [2], “drug-induced liver injury reported”; in the data set with Hepatotoxicity [3], “drug-induced liver injury reported”.
In the case of `COc1cc2c(cc1O)CC[C@@H]1[C@@H]2CC[C@]2(C)[C@@H](O)CC[C@@H]12` [2-METHOXYESTRADIOL], the results for the Hepatotoxicity result with Hepatotoxicity [1], in the data set with Hepatotoxicity [2] and in the data set with Hepatotoxicity [3] were “no drug-induced liver injury reported”, “drug-induced liver injury reported” and “drug-induced liver injury reported”, respectively.
With `CCOC(=O)[C@H](CCc1ccccc1)N[C@@H](C)C(=O)N1[C@H](C(=O)O)C[C@H]2CCCC[C@@H]21` [TRANDOLAPRIL], the Hepatotoxicity entry in the data set on Hepatotoxicity [1] is reported as “no drug-induced liver injury reported”; in the data set with Hepatotoxicity [2], “no drug-induced liver injury reported”; in the data set on Hepatotoxicity [3], “drug-induced liver injury reported”.
On to `O=c1[nH]cc(Br)c(=O)[nH]1` [5-BROMOURACIL], for which the Hepatotoxicity entry in the data set on Hepatotoxicity [1] is “no drug-induced liver injury reported”; with Hepatotoxicity [2], “drug-induced liver injury reported”; in the data set on Hepatotoxicity [3], “no drug-induced liver injury reported”.
As to `CCCNC(=O)NS(=O)(=O)c1ccc(Cl)cc1` [CHLORPROPAMIDE], the Hepatotoxicity result is reported as “no drug-induced liver injury reported” in the data set with Hepatotoxicity [1], “drug-induced liver injury reported” in the data set with Hepatotoxicity [2] and “drug-induced liver injury reported” in the data set on Hepatotoxicity [3].
Turning to `CC(C(=O)O)c1ccc2oc(-c3ccc(Cl)cc3)nc2c1` (stereo unspecified) [BENOXAPROFEN], the results for the Hepatotoxicity result in the data set with Hepatotoxicity [1], with Hepatotoxicity [2] and in the data set on Hepatotoxicity [3] were “no drug-induced liver injury reported”, “drug-induced liver injury reported” and “drug-induced liver injury reported”, respectively.
Regarding `CC(C)(Sc1cc(C(C)(C)C)c(O)c(C(C)(C)C)c1)Sc1cc(C(C)(C)C)c(O)c(C(C)(C)C)c1` [PROBUCOL], the Hepatotoxicity entry with Hepatotoxicity [1], in the data set with Hepatotoxicity [2] and with Hepatotoxicity [3] was “drug-induced liver injury reported” in each case.
As to `O=C1c2c(O)ccc(O)c2C(=O)c2c(NCCNCCO)ccc(NCCNCCO)c21` [MITOXANTRONE], the Hepatotoxicity entry with Hepatotoxicity [1] is on record as “no drug-induced liver injury reported”; in the data set with Hepatotoxicity [2] it was “drug-induced liver injury reported”; in the data set with Hepatotoxicity [3], “drug-induced liver injury reported”.
For the molecule `CC(=O)Nc1ccc(O)cc1` [ACETAMINOPHEN], the Hepatotoxicity result in the data set on Hepatotoxicity [1], with Hepatotoxicity [2] and in the data set on Hepatotoxicity [3] was “drug-induced liver injury reported” in each case.
`C[C@@H]1C[C@H]2[C@@H]3CCC4=CC(=O)C=C[C@]4(C)[C@@]3(F)[C@@H](O)C[C@]2(C)[C@@]1(O)C(=O)CO` [DEXAMETHASONE]: the Hepatotoxicity entry with Hepatotoxicity [1], in the data set on Hepatotoxicity [2] and in the data set on Hepatotoxicity [3] was “drug-induced liver injury reported” throughout.
Take `CCCCCCCCCCC[C@@H](C[C@@H]1OC(=O)[C@H]1CCCCCC)OC(=O)[C@H](CC(C)C)NC=O` [ORLISTAT]: the results for the Hepatotoxicity result in the data set on Hepatotoxicity [1], in the data set with Hepatotoxicity [2] and in the data set on Hepatotoxicity [3] were “no drug-induced liver injury reported”, “no drug-induced liver injury reported” and “drug-induced liver injury reported”, respectively.
Turning to `C=CCC1(C(C)C#CCC)C(=O)N=C([O-])N(C)C1=O.[Na+]` (stereo unspecified) [METHOHEXITAL SODIUM], the Hepatotoxicity result in the data set with Hepatotoxicity [1] was “no drug-induced liver injury reported”; in the data set with Hepatotoxicity [2], “drug-induced liver injury reported”; in the data set on Hepatotoxicity [3] it was “no drug-induced liver injury reported”.
Consider `Cn1cnc([N+](=O)[O-])c1Sc1ncnc2nc[nH]c12` [AZATHIOPRINE], for which the Hepatotoxicity result is recorded as “no drug-induced liver injury reported” in the data set on Hepatotoxicity [1] (Liver), “drug-induced liver injury reported” in the data set with Hepatotoxicity [2] (Liver) and “drug-induced liver injury reported” in the data set on Hepatotoxicity [3] (Liver).
For `O=C(CCNNC(=O)c1ccncc1)NCc1ccccc1` [NIALAMIDE], the Hepatotoxicity result in the data set with Hepatotoxicity [1] is given as “no drug-induced liver injury reported”; with Hepatotoxicity [2], “drug-induced liver injury reported”; in the data set on Hepatotoxicity [3], “no drug-induced liver injury reported”.
In the case of `COCc1c(C(C)C)nc(C(C)C)c(/C=C/[C@@H](O)C[C@@H](O)CC(=O)O)c1-c1ccc(F)cc1` [CERIVASTATIN], the Hepatotoxicity result in the data set with Hepatotoxicity [1], in the data set on Hepatotoxicity [2] and in the data set on Hepatotoxicity [3] was “drug-induced liver injury reported” in each case.
Take `CCN(CCCc1ccccc1)CCCc1ccccc1` [ALVERINE]: the Hepatotoxicity entry in the data set with Hepatotoxicity [1] is reported as “no drug-induced liver injury reported”; in the data set with Hepatotoxicity [2] it was “no drug-induced liver injury reported”; with Hepatotoxicity [3] it was “drug-induced liver injury reported”.
On to `CN(C)CCC=C1c2ccccc2COc2ccccc21` [DOXEPIN], for which the Hepatotoxicity entry is “no drug-induced liver injury reported” with Hepatotoxicity [1], “no drug-induced liver injury reported” in the data set on Hepatotoxicity [2] and “drug-induced liver injury reported” with Hepatotoxicity [3].
Consider `C=C[C@H]1C[N@@]2CC[C@H]1C[C@@H]2[C@@H](O)c1ccnc2ccc(OC)cc12` [QUINIDINE], for which the Hepatotoxicity result is listed as “no drug-induced liver injury reported” with Hepatotoxicity [1], “drug-induced liver injury reported” in the data set with Hepatotoxicity [2] and “drug-induced liver injury reported” in the data set on Hepatotoxicity [3].
For the molecule `O=C(O)/C=C/c1ccc(Cn2ccnc2)cc1` [OZAGREL], the Hepatotoxicity entry is “no drug-induced liver injury reported” with Hepatotoxicity [1], “drug-induced liver injury reported” with Hepatotoxicity [2] and “no drug-induced liver injury reported” in the data set on Hepatotoxicity [3].
For the molecule `CC(=O)Oc1ccccc1C(=O)O.NCCCCC(N)C(=O)O` [ASPIRIN DL-LYSINE], the results for the Hepatotoxicity result in the data set on Hepatotoxicity [1], in the data set with Hepatotoxicity [2] and in the data set with Hepatotoxicity [3] were “no drug-induced liver injury reported”, “drug-induced liver injury reported” and “drug-induced liver injury reported”, respectively.
Take `Nc1ncn([C@H]2C[C@H](O)[C@@H](CO)O2)c(=O)n1` [DECITABINE]: the figures for the Hepatotoxicity result in the data set on Hepatotoxicity [1], in the data set on Hepatotoxicity [2] and in the data set on Hepatotoxicity [3] were “no drug-induced liver injury reported”, “no drug-induced liver injury reported” and “drug-induced liver injury reported”, respectively.
Turning to `CN(C/C=C/C#CC(C)(C)C)Cc1cccc2ccccc12` [TERBINAFINE], the results for the Hepatotoxicity result in the data set with Hepatotoxicity [1], in the data set on Hepatotoxicity [2] and in the data set on Hepatotoxicity [3] were “no drug-induced liver injury reported”, “drug-induced liver injury reported” and “drug-induced liver injury reported”, respectively.
On to `O=C(NCN1CCOCC1)c1cnccn1` [MORINAMIDE], for which the Hepatotoxicity entry in the data set with Hepatotoxicity [1] was “no drug-induced liver injury reported”; in the data set on Hepatotoxicity [2] it was “no drug-induced liver injury reported”; with Hepatotoxicity [3], “drug-induced liver injury reported”.
In the case of `FC(F)OC(F)C(F)(F)F` (stereo unspecified), the Hepatotoxicity entry with Hepatotoxicity [1] is reported as “no drug-induced liver injury reported”; in the data set on Hepatotoxicity [2] it was “drug-induced liver injury reported”; in the data set with Hepatotoxicity [3], “drug-induced liver injury reported”.
Consider `CC1(C)S[C@@H]2[C@H](NC(=O)[C@H](N)c3ccc(O)cc3)C(=O)N2[C@H]1C(=O)O.O=C([O-])[C@H]1/C(=C/CO)O[C@@H]2CC(=O)N21.[K+]` [AMOXICILLIN/CLAVULANIC ACID], for which the Hepatotoxicity entry is “no drug-induced liver injury reported” in the data set with Hepatotoxicity [1], “no drug-induced liver injury reported” in the data set on Hepatotoxicity [2] and “drug-induced liver injury reported” in the data set on Hepatotoxicity [3].
With `Cn1nnc2c(C(N)=O)ncn2c1=O` [TEMOZOLOMIDE], the figures for the Hepatotoxicity entry with Hepatotoxicity [1], in the data set on Hepatotoxicity [2] and in the data set on Hepatotoxicity [3] were “no drug-induced liver injury reported”, “no drug-induced liver injury reported” and “drug-induced liver injury reported”, respectively.
As to `C[C@H](N)[C@H](O)c1ccccc1` [(1R,2S)-PHENYLPROPANOLAMINE], the Hepatotoxicity entry in the data set with Hepatotoxicity [1] is on record as “no drug-induced liver injury reported”; in the data set with Hepatotoxicity [2] it was “drug-induced liver injury reported”; in the data set with Hepatotoxicity [3], “no drug-induced liver injury reported”.
